Test results taken from ChEMBL document CHEMBL1201862, “PubChem BioAssay data set” (2004).
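Protocol summary: plate cells (96-well), add compound at 5 concentrations, incubate 48 h, interpolate endpoints linearly. Abbreviation: GI50, concentration required for 50% inhibition of growth.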 Active and inactive are the calls of the source. Cut-off read from the data, not from the text of the source: active = GI50 up to about 1.1 µM and inactive = higher.

Experiments:
Assay in all cases: NCI anticancer screen, dose series, 48 h
[1] = test system: SF-295
[2] = test system: U-251
[3] = test system: HL-60
[4] = test system: A549
[5] = test system: ACHN
[6] = test system: RPMI-8226
[7] = test system: HCC 2998
[8] = test system: UACC-257
[9] = test system: Malme-3M
[10] = test system: IGROV-1
[11] = test system: COLO 205
[12] = test system: OVCAR-4
[13] = test system: M14
[14] = test system: SK-MEL-5
[15] = test system: SNB-19

Measured: GI50

Cc1ccc2c(c1)-c1c3c(nn1-c1ccccc1)-c1ccccc1SC3O2 (centres undefined)
inactive: [1] > 100 µM | [2] > 100 µM | [3] > 100 µM | [4] > 100 µM | [5] > 100 µM | [6] 63.8 µM | [7] > 100 µM | [8] > 100 µM | [9] > 100 µM | [10] > 100 µM | [11] > 100 µM

COc1ccc(S(=O)(=O)N[C@H](C(=O)O)c2ccccc2)cc1
inactive: [1] > 100 µM | [12] > 100 µM | [2] > 100 µM | [13] > 100 µM | [4] > 100 µM | [5] > 100 µM | [14] > 100 µM | [15] > 100 µM | [6] > 100 µM | [7] > 100 µM | [8] > 100 µM | [9] > 100 µM | [10] > 100 µM | [11] > 100 µM

C/C(=N\NS(=O)(=O)c1ccc(C)cc1)c1c(O)cc(C)oc1=O
inactive: [1] > 100 µM | [12] 29.1 µM | [2] > 100 µM | [3] > 100 µM | [13] > 100 µM | [4] > 100 µM | [5] > 100 µM | [14] > 100 µM | [15] > 100 µM | [7] > 100 µM | [8] > 100 µM | [9] > 100 µM | [10] > 100 µM

N#CCN1C(=O)c2cccc3cc([N+](=O)[O-])cc(c23)C1=O
inactive: [1] 61.9 µM | [12] 45.4 µM | [2] 38.7 µM | [3] 23.8 µM | [13] 37.3 µM | [4] 40.1 µM | [5] 42.5 µM | [14] 43.1 µM | [15] 84.9 µM | [6] 22.7 µM | [7] 44.8 µM | [8] 24.3 µM | [9] 33.6 µM | [10] 42.9 µM | [11] 35.3 µM

Cc1cc(C)c(-c2noc(-c3ccc(Cl)cc3)c2C2=NCCN2)c(C)c1
inactive: [1] 14 µM | [12] 78.9 µM | [2] 15.7 µM | [3] 14.4 µM | [13] 12.2 µM | [4] 32.4 µM | [5] 23.1 µM | [14] 11.7 µM | [15] 28.1 µM | [6] 17.9 µM | [7] 17.8 µM | [8] 17.5 µM | [9] 20.4 µM | [10] 22.2 µM | [11] 16.4 µM

C#CCNC(=O)NCCCCC(NC(C)=O)C(=O)NCc1ccccc1 (centres undefined)
inactive: [1] > 100 µM | [12] > 100 µM | [2] > 100 µM | [13] > 100 µM | [4] > 100 µM | [5] > 100 µM | [14] > 100 µM | [15] > 100 µM | [6] > 100 µM | [7] > 100 µM | [8] > 100 µM | [9] > 100 µM | [10] > 100 µM | [11] > 100 µM

CC(C)c1cc2c(O)c(c1)Cc1cc(C(C)C)cc(c1O)Cc1cc(C(C)C)cc(c1O)Cc1cc(C(C)C)cc(c1O)Cc1cc(C(C)C)cc(c1O)Cc1cc(C(C)C)cc(c1O)C2
inactive: [1] > 100 µM | [12] > 100 µM | [2] > 100 µM | [3] > 100 µM | [13] > 100 µM | [4] > 100 µM | [5] > 100 µM | [14] > 100 µM | [15] > 100 µM | [6] > 100 µM | [7] > 100 µM | [8] > 100 µM | [9] > 100 µM | [10] > 100 µM | [11] > 100 µM

N#Cc1cc([N+](=O)[O-])ccc1NC(=O)C(=O)C(C(=O)c1ccc2ccccc2c1)C1OCc2ccccc21 (centres undefined)
inactive: [1] 3.15 µM | [12] > 25.5 µM | [2] 4 µM | [3] 12.2 µM | [13] 15.1 µM | [4] 10.7 µM | [5] 14.1 µM | [14] 9.06 µM | [15] 6.9 µM | [6] 5.2 µM | [7] 10.3 µM | [8] 9.33 µM | [9] 8.41 µM | [10] 17.6 µM | [11] 9.4 µM

CN1CCC(SC2Cc3cc(Cl)ccc3Sc3ccccc32)CC1 (centres undefined)
inactive: [1] 15.9 µM | [12] 14.7 µM | [2] 13.6 µM | [3] 4.15 µM | [13] 4 µM | [4] 15.3 µM | [5] 14.6 µM | [14] 13.5 µM | [15] 15.6 µM | [6] 7.29 µM | [7] 8.93 µM | [8] 7.96 µM | [9] 14.2 µM | [10] 14.7 µM | [11] 12.9 µM

O=C(/C=C/c1ccccc1F)c1ccc([N+](=O)[O-])cc1
inactive: [1] 27.9 µM | [12] 25.3 µM | [2] 15.1 µM | [13] 26.8 µM | [4] 31.4 µM | [5] 31.2 µM | [6] 2 µM | [7] 15.6 µM | [9] 27.8 µM | [10] 24.3 µM | [11] 35.2 µM

Cc1ccc(S(=O)(=O)NCCCN(CCCNS(=O)(=O)c2ccc(C)cc2)S(=O)(=O)c2ccc(C)cc2)cc1
inactive: [1] > 100 µM | [2] > 100 µM | [3] > 100 µM | [13] > 100 µM | [4] > 100 µM | [5] > 100 µM | [15] > 100 µM | [6] > 100 µM | [7] > 100 µM | [8] > 100 µM | [9] > 100 µM | [10] > 100 µM | [11] > 100 µM

COc1ccc(NC(=O)C/C(C)=N\N=C(N)N)c([N+](=O)[O-])c1
inactive: [1] > 100 µM | [12] > 100 µM | [2] > 100 µM | [3] 88.5 µM | [13] > 100 µM | [4] > 100 µM | [5] > 100 µM | [14] > 100 µM | [15] > 100 µM | [6] > 100 µM | [7] > 100 µM | [8] > 100 µM | [9] > 100 µM | [10] > 100 µM | [11] > 100 µM

Cc1nc(N)c(-c2ccccc2)s1
inactive: [1] 32.7 µM | [12] > 100 µM | [2] > 48.5 µM | [3] 28.6 µM | [13] 40.9 µM | [4] 68.9 µM | [5] > 100 µM | [14] 43.5 µM | [15] 80.7 µM | [6] > 49.1 µM | [7] > 100 µM | [8] 53.7 µM | [9] > 100 µM | [10] > 78.2 µM | [11] > 47 µM

CCCN(CCC)C(=O)C(=O)c1c(N)[nH]n(-c2ccccc2)c1=O
inactive: [1] > 100 µM | [12] > 100 µM | [2] > 100 µM | [3] 80.9 µM | [13] > 100 µM | [4] > 100 µM | [5] > 100 µM | [14] > 100 µM | [15] > 100 µM | [6] > 100 µM | [7] > 100 µM | [8] 45.1 µM | [9] > 100 µM | [10] > 100 µM | [11] > 100 µM

CN/N=C(/c1nc2ccc([N+](=O)[O-])cc2nc1O)C(O)c1ccc(C(O)/C(=N\NC)c2nc3ccc([N+](=O)[O-])cc3nc2O)cc1 (centres undefined)
inactive: [1] 66.4 µM | [2] > 100 µM | [3] 4.37 µM | [13] 52.4 µM | [4] 64.6 µM | [5] 46.9 µM | [14] > 100 µM | [15] > 100 µM | [6] 68.1 µM | [7] 23.9 µM | [8] 52.6 µM | [9] > 100 µM | [10] > 100 µM | [11] 64.9 µM

COC(=O)C(=O)CC(=O)CCn1[nH]c(=O)c(Cl)c(Cl)c1=O
inactive: [1] > 100 µM | [12] > 100 µM | [2] > 100 µM | [3] > 100 µM | [13] > 100 µM | [4] > 100 µM | [5] > 100 µM | [14] > 100 µM | [15] > 100 µM | [7] > 100 µM | [8] > 100 µM | [9] > 100 µM | [10] > 100 µM | [11] > 100 µM

c1ccc2c(c1)SC(=C1Sc3ccccc3S1)S2
inactive: [1] > 100 µM | [12] > 100 µM | [2] > 100 µM | [13] > 100 µM | [4] > 100 µM | [5] > 100 µM | [15] > 100 µM | [7] > 100 µM | [9] > 100 µM | [10] > 100 µM | [11] > 100 µM

CN(C)/C=N/c1nc2c(ncn2C2OC(CO)C(O)C2O)c(=O)[nH]1 (centres undefined)
inactive: [1] > 100 µM | [12] > 100 µM | [2] > 100 µM | [3] > 100 µM | [13] > 100 µM | [4] > 100 µM | [5] > 100 µM | [14] > 100 µM | [15] > 100 µM | [6] > 100 µM | [7] > 100 µM | [8] > 100 µM | [9] > 100 µM | [10] > 100 µM | [11] > 100 µM

CCCCCCN(CCCCCC)C(=O)Cc1c2n(c3ccccc13)Cc1ccccc1-2
inactive: [1] 56.8 µM | [12] 79.8 µM | [2] 34.4 µM | [3] 19.8 µM | [13] 44.8 µM | [4] 52.8 µM | [5] 50.2 µM | [14] 41.4 µM | [15] 80.7 µM | [6] 28.8 µM | [7] 53.7 µM | [8] 49.7 µM | [9] 88.9 µM | [11] 58.5 µM
